Read-outs that look alike come from different tables or passages of the source.
Legend:
[1] = test system: C6 glioma cells; set-up: method as in PMID 18520037; conditions: cited from earlier work
[2] = test system: LAT1; set-up: method as in PMID 18520037; conditions: BCH 3 mM, C6 glioma cells; cited from earlier work
[3] = test system: C6 glioma cells; experiment: MTT cell viability of BCH and of THC-di-Phe with or without LAT1 inhibitor BCH; format: cell-based; conditions: 24 h
Procedure: To investigate the role of THC-conjugated amino acid conjugates on LAT1, THC-amino acid conjugates were co-incubated with an inhibitor of LAT1 (BCH). The cells were seeded overnight at 2 × 10^4 cells/well in 96-well plates. Initially, the cells were treated with different concentrations of BCH (5, 10, and 20 mM) for 24 h, followed by the MTT assay to identify the maximum non-toxic concentration of BCH. Then, the cells were treated with THC-di-Phe at 12.5, 25, and 50 μM concentrations with or without 5 mM BCH for 24 h. The cell viability was measured by MTT assay.

[4] = test system: C6 glioma cells; experiment: MTT cytotoxicity in C6 glioma cells; format: cell-based
Procedure: (§1) C6 glioma cells and BJ fibroblast cells (ATCC, Manassas, VA, USA) were used as models for brain cancer and normal cells, respectively. The cells were cultured in DMEM media (Sigma–Aldrich, St. Louis, MO, USA) supplemented with 10% fetal bovine serum (Merck Millipore, Burlington, MA, USA) and 1% penicillin-streptomycin (Caisson Labs, Smithfield, UT, USA). The cells were maintained in an incubator with 5% CO2 at 37 °C and 95% humidity.
(§2) Cell viability was assessed using the 3-(4,5-dimethylthiazol-2-yl)-2,5-diphenyltetrazolium bromide (MTT) assay (Sigma–Aldrich, St. Louis, MO, USA). Cells were seeded in 96-well plates at a density of 2 × 10^4 cells/well and incubated for 24 h. The cells were then treated with various concentrations of THC and equimolar concentrations of THC-amino acid conjugates (0, 31.25, 62.5, 125, 250, and 500 μM) for 24 and 48 h in cancer cells, and for 24 h in normal cells. After treatment, the media were removed and replaced with MTT solution (0.5 mg/mL), followed by incubation for 3 h. The resulting formazan crystals were dissolved in DMSO (Sigma–Aldrich, St. Louis, MO, USA). Absorbance was measured using a microplate reader at a wavelength of 570 nm (CLARIOstar®, BMG Labtech, Ortenberg, Germany).

[5] = test system: BJ fibroblast cells; experiment: MTT cytotoxicity in normal BJ fibroblast cells; format: cell-based; conditions: 24 h treatment
Procedure: as §1, §2

[6] = test system: C6 glioma cells; experiment: Hoechst 33342/PI double staining assay (apoptosis and necrosis); format: cell-based; conditions: 20 and 40 µM and higher concentrations
Procedure: Apoptosis and necrosis were assessed using the Hoechst 33342/PI double staining assay (Sigma–Aldrich, St. Louis, MO, USA). After treatment, the cells were viewed using a fluorescence microscope (Olympus IX51 inverted microscope, Tokyo, Japan). Hoechst 33342 dye stains cells with blue color, either dead or alive. Apoptotic cells are indicated by condensed and fragmented chromatin. Propidium iodide (PI) stains cells in red, which can only stain damaged cells and is used as an indicator of cellular necrosis.

[7] = test system: C6 cells; experiment: Cell proliferation assay (MTT); format: cell-based; conditions: 10 µM, 24 h and 48 h post-treatment
Procedure: The effects of THC-di-Phe on cell cancer proliferation were assessed using a cell proliferation assay. Briefly, C6 cells were seeded in a 96-well plate at a concentration of 5000 cells/well and then incubated overnight. Cells were then incubated with 10 µM THC and THC-di-Phe for 24 and 48 h. The morphology of the cells was observed under a light microscope. Then, the cells were incubated with MTT solution (0.5 mg/mL), and the formed formazan crystals were dissolved in DMSO. The absorbance was measured using a microplate reader (CLARIOstar®, BMG Labtech, Ortenberg, Germany) at the wavelength of 570 nm.

[8] = test system: C6 glioma cells; experiment: Annexin V/PI double staining by flow cytometry; format: cell-based; conditions: 20 μM, 24 h, mean ± S.D., n = 3
Procedure: Annexin V/PI staining by flow cytometry was performed to indicate the stage of cell fate, including necrosis, early and late apoptosis, and viable cells. Briefly, the cells were treated with the THC and THC-di-Phe at 20 µM. After 24 h, the cells were harvested and further analyzed by flow cytometry. Annexin V/PI staining by flow cytometry was performed according to the manufacturer’s instructions (BioLegend, San Diego, CA, USA).

[9] = test system: C6 glioma cells; experiment: Cell scratch (wound closure, migration) assay; format: cell-based; conditions: 10 µM, % of wound closure compared to 0 h; for wound closure at 24 h: control 71.4%; for wound closure at 48 h: control 100%
Procedure: Properties of cell migration were assayed using a cell scratch assay. Briefly, the cells were seeded in 24-well plates at a concentration of 100,000 cells/well, followed by treatment of the cells using 10 µM THC and 10 µM THC-di-Phe. The cell layers were then scrapped with a 200 µL pipette tip to form a wound. The ability of the cells to close the wound was observed under an inverted microscope (Nikon TS2, Tokyo, Japan) at 0, 24, and 48 h post-treatment. Wound closure was further analyzed using ImageJ software (version 1.53e, Wayne Rasband and contributors, National Institutes of Health, USA).

[10] = test system: P70S6K/S6 pathway; experiment: Western blot of P70S6K and S6 phosphorylation; format: cell-based; conditions: 10 µM, C6 cells, 8, 16 and 24 h post-treatment
Procedure: C6 cells were seeded in a 6-well plate with a density of 1 × 10^6 cells for 24 h. The cells were treated with THC and THC-di-Phe for 8, 16, and 24 h. The cells were washed in ice-cold phosphate-buffered saline (PBS) and lysed with ice-cold lysis buffer containing protease and phosphatase inhibitors. The cells in the lysis buffer were centrifuged at 14,000 rpm at 4 °C for 10 min. The protein concentration in the supernatant was quantified using Pierce™ BCA protein assay. After the quantification, equal amounts of protein were resolved by SDS–PAGE and transferred into a nitrocellulose membrane. The membranes were then blocked with 5% dry milk and probed with primary antibody including p70S6K, p-p70S6K, S6, p-S6 (Cell Signaling Technology (Beverly, MA, USA), followed by adding the species-specific horseradish […] conjugated secondary antibody (Cell Signaling Technology (Beverly, MA, USA). The membrane was incubated with a chemiluminescent detection kit solution, followed by X-ray film imaging to visualize protein levels. The level of phosphorylation of each protein was normalized to its normal form.

[11] = test system: C6 glioma cells; experiment: MTT cytotoxicity in C6 glioma cells; format: cell-based; conditions: tested at 5 to 40 µM, Supplementary Figure S29
[12] = 24 h treatment, read-out: IC50 at 24 h, C6 cells
[13] = 48 h treatment, read-out: IC50 at 48 h, C6 cells

Molecule	IC50 [4, 12]	IC50 [4, 13]	IC50 [5]	proliferation ability of C6 cells compared to the control [7]	necrotic cell death [8]	percentage of late apoptotic cells [8]	wound closure at 24 h [9]	wound closure at 48 h [9]	phosphorylation of P70S6K and S6 compared to control [10]	further results
NC1(C(=O)O)CC2CCC1C2 (centres unmarked) [BCH, 2-Aminobicyclo-(2,2,1)-heptane-2-carboxylic acid]										cytotoxicity at 3 mM ([1]; BCH 3 mM, 24 h incubation): no significant cytotoxicity; cytotoxicity at 10 mM ([1]; BCH 10 mM): significant toxicity; inhibition of LAT1 activity [2]: completely inhibit; maximum non-toxic concentration ([3]; C6 glioma cells, MTT): 5 mM
(Z)-2,2′-(((((3-Hydroxy-5-oxohept-3-ene-1,7-diyl)bis(2-methoxy-4,1-phenylene))bis(oxy))bis (carbonyl))bis(azanediyl))bis(4-methylpentanoic acid) [THC-di-Leu]	350 ± 52.6 µM	350 ± 129 µM	> 500 µM							
(Z)-2,2′-(((((3-Hydroxy-5-oxohept-3-ene-1,7-diyl)bis(2-methoxy-4,1 phenylene))bis(oxy))bis (carbonyl))bis(azanediyl))diacetic acid [THC-di-Gly]	> 500 µM	> 500 µM	> 500 µM							
(Z)-2,2′-(((((3-Hydroxy-5-oxohept-3-ene-1,7-diyl)bis(2-methoxy-4,1-phenylene))bis(oxy))bis (carbonyl))bis(azanediyl))bis(3-phenylpropanoic acid) [THC-di-Phe]	35.8 µM	26.8 µM	470 ± 20.4 µM	significantly inhibited	5.01 ± 0.64%	6.07 ± 1.13%	32.8%	65.2%	significantly inhibited	induction of cellular apoptosis (Hoechst 33342/PI) [6]: observed; concentrations toxic to C6 glioma cells [11]: above 10 µM; cell death on co-incubation with BCH vs THC-di-Phe alone, lower concentrations ([3]; THC-di-Phe 12.5 and 25 μM, 5 mM BCH): significantly increased cell death; cell death with or without BCH, higher concentrations ([3]; THC-di-Phe 50 and 100 μM, 5 mM BCH): comparable cellular death
COc1cc(CCC(=O)CC(=O)CCc2ccc(O)c(OC)c2)ccc1O [THC, Tetrahydrocurcumin]	111 µM	52.9 µM		significant reduction of cell proliferation by THC was only observed 48 h post-treatment	2.73 ± 0.15%	2.33 ± 0.32%	46.3%	81.4%	did not significantly modulate	IC50 ([5]; Homo sapiens): 184 ± 31.8 µM
(Z)-2,2′-(((((3-Hydroxy-5-oxohept-3-ene-1,7-diyl)bis(2-methoxy-4,1-phenylene))bis(oxy))bis (carbonyl))bis(azanediyl))bis(3-methylpentanoic acid) [THC-di-Ile]	> 500 µM	> 500 µM	> 500 µM							

From publication PMC11509005, “Synthesis, Cytotoxicity, and Mechanistic Evaluation of Tetrahydrocurcumin-Amino Acid Conjugates as LAT1-Targeting Anticancer Agents in C6 Glioma Cells” (International Journal of Molecular Sciences, 2024)
